Measurements published in patent US8003799B2, “Picolinic acid derivatives and their use as fungicides” (Bayer SAS, priority 2000, dated 2011).

Experiments:
[1] = test system: Erisyphe graminis f. sp. tritici; assay: In vivo test on Erisyphe graminis f. sp. tritici (powdery mildew of wheat); conditions: dose of 500 g/ha; wheat plants (Audace variety) sprayed 24 hours before contamination; grading 7 to 14 days after contamination vs control plants
Experimental: In Vivo Test on […] Graminis f. Sp. Tritici (Powdery Mildew of Wheat) […] Wheat plants (Audace variety) in starter cups, sown on 50/50 peat soil-pozzulana substrate and grown at 12° C., are treated at the 1-leaf stage (10 cm tall) by spraying with the aqueous suspension described above. Plants, used as controls, are treated with an aqueous solution not containing the active material. After 24 hours, the plants are contaminated by dusting them with […] graminis f. sp. tritici spores, the dusting being carried out using diseased plants. Grading is carried out 7 to 14 days after the contamination, in comparison with the control plants.

Septoria tritici = assay: In vivo test on Septoria tritici (septoria disease of wheat); conditions: dose of 500 g/ha; wheat plants (Scipion variety) sprayed 24 hours before contamination; grading 15 to 20 days after contamination vs control plants
Experimental: In Vivo Test on Septoria Tritici (Septoria Disease of Wheat) […] Wheat plants (Scipion variety) in starter cups, sown on a 50/50 peat soil-pozzolana substrate and grown at 12° C., are treated at the 1-leaf stage (10 cm tall) by spraying with the aqueous suspension described above. Plants, used as controls, are treated with an aqueous solution not containing the active material. After 24 hours, the plants are contaminated by spraying them with an aqueous suspension of Septoria tritici spores (500,000 spores per mL). The spores are collected from a 15-day-old culture and are suspended in a nutrient solution composed of: • 1.5 g/L of gelatin • 0.5 g/L of sodium oleate • 24 g/L of PDB The contaminated wheat plants are incubated for 72 hours at about 20° C. and at 100% relative humidity, and then for 15 days at 80% relative humidity. Grading is carried out 15 to 20 days after the contamination, in comparison with the control plants.

Q: For `Nc1ccnc(C(=O)Nc2ccc(Oc3ccc(C(F)(F)F)cc3)cc2)c1O` [Compound 108, 4-amino-3-hydroxy-N-para-[4-(trifluoromethyl)phenoxy]phenylpicolinamide], which “good (at least 50%) or total protection” value [1] is on record?
A: at least 50%

Q: And the “good (at least 50%) protection” value (Septoria tritici)?
A: at least 50%
